{"source": "patent US20010036933A1", "about": "“Water soluble lipidated arabinogalactan” (The University of Montana, priority 1996, published 2001)", "key": {"[1]": {"assay": "Solubility of progesterone in water and in aqueous AG decanoate (UV absorption at 250 nm)", "format": "physicochemical", "details": "60° C. 10 min, then 25° C. 20 h", "protocol": "Progesterone was heated with water at 60° C. for 10 min, then held at 25° C. for 20 h. […] When the above experiment was repeated with a 1% aqueous solution of AG decanoate (DS 2.59%) the saturated solution contained 4.7×10^−3% progesterone. In the UV analysis of the AG decanoate solution of the progesterone, the appropriate AG decanoate solution without progesterone was used as a spectrometer blank."}, "[2]": {"system": "tumor metastases", "details": "mice; cited from earlier work"}, "[3]": {"system": "neutrophil-HUVEC adhesion", "assay": "Neutrophil-HUVEC adhesion under physiological shear forces (closed-loop capillary tube, video-microscopy)", "format": "cell-based, human", "details": "for effect on neutrophil rolling on activated HUVEC: 1-100 μg/ml", "protocol": "The in vitro effects of Compound A-F listed in Table I on leucocyte and endothelial cell adhesion under physiological shear forces was examined as follows.\nHuman umbilical vein endothelial cells (HUVEC) were grown to confluence on the internal surface of collagen type I coated capillary tubes. Endothelial cells were stimulated for 4 hours with […] (10 ng, Genzyme), which upregulates adhesion molecules such as E-selectin within 4-6 hours. Neutrophils and lymphocytes were collected from normal human donors by venipuncture and separated from the blood on ficoll-histoplaque density gradients. The endothelial cell-coated tubes were then integrated into the closed-loop system. Leukocytes were infused into the assay system at a concentration of 1×10^6-5×10^6 cell/ml in DMEM plus 20 mM HEPES. Shear forces of 1-3 dynes/cm^2 (standard representation of blood flow) were applied via a variable speed peristaltic pump, and interactions between the leukocytes and endothelial cells were monitored by video-microscopy. Comparisons were made of the binding of leukocytes and endothelial cells treated with the 6 compounds and untreated controls.\nTo observe the effects of the compounds on neutrophil adhesive interactions, the neutrophils were infused and allowed to establish rolling for two minutes before the addition of the compounds. The compounds were added in increasing 1 μg/ml, 10 μg/ml, and 100 μg/ml final concentrations at 2 minute intervals. The interactions were recorded to video tape."}, "[4]": {"system": "ovalbumin (“O.A.”)", "assay": "Assay of adjuvant activity: antibody formation in mice injected with ovalbumin plus arabinogalactan compound", "format": "in vivo", "details": "for adjuvant activity in antibody formation in comparison to the control: 25 μg ovalbumin in saline with 50, 10 or 2 μg compound, booster day 21, bled days 7, 14, 28, 35", "protocol": "In the experiment, 25 μg of ovalbumin (“O.A.”) was injected into mice in a saline solution together with 50, 10, 2 or 0 μg (the control) of the arabinogalactan compounds. The animals were prebled prior to immunization; injected; bled on days 7 and 14; given a booster injection on day 21; and bled on days 28 and 35 for antibody determination."}, "[5]": {"assay": "Formation of oil-water emulsions with water-soluble lipidated arabinogalactan", "format": "physicochemical"}}, "data": [{"molecule": "CC(=O)[C@H]1CC[C@H]2[C@@H]3CCC4=CC(=O)CC[C@]4(C)[C@H]3CC[C@]12C", "note": "[Progesterone]", "values": [{"measurement": "dissolved progesterone in saturated solution", "setting": "[1]; 1% aqueous solution of AG decanoate (DS 2.59%)", "value": "4.7×10^−3%"}, {"measurement": "dissolved progesterone in saturated solution", "setting": "[1]; water", "value": "8.8×10^−4%"}]}, {"molecule": "AG (ultrarefined) [Compound A, reference compound]", "values": [{"measurement": "effect on tumor metastases", "setting": "[2]", "value": "reduce tumor metastases"}, {"measurement": "effect on neutrophil rolling on activated HUVEC", "setting": "[3]", "value": "significantly blocked"}, {"measurement": "reduction in neutrophil adhesion", "setting": "[3]; during the time course, 1, 10, 100 μg/ml added at 2 minute intervals, IL-stimulated HUVEC", "value": "~75", "unit": "%"}, {"measurement": "reduction of neutrophil binding to baseline", "setting": "[3]; even at 10 μg/ml or 100 μg/ml", "value": "did not reduce binding to baseline"}, {"measurement": "adjuvant activity in antibody formation in comparison to the control", "setting": "[4]", "value": "some adjuvant activity"}]}, {"molecule": "AG decanoate (DS 2.6%)", "values": [{"measurement": "effect on neutrophil rolling on activated HUVEC", "setting": "[3]", "value": "no measurable effect"}]}, {"molecule": "AG dodecyl ether (DS 1.3%) [F]", "values": [{"measurement": "effect on neutrophil rolling on activated HUVEC", "setting": "[3]", "value": "no measurable effect"}]}, {"molecule": "AG palmitate (DS 1.7%) [C]", "values": [{"measurement": "stability of emulsion with safflower oil", "setting": "[5]; 2 mL 1.0% aqueous solution mixed with safflower oil (4 g), room temperature", "value": "no separation of phases was evident after several days"}, {"measurement": "behaviour on shaking with hexane", "setting": "[5]; 2 mL 1% solution shaken with hexane (1 mL)", "value": "upper phase became extremely viscous and opaque and remained in this state for several days"}, {"measurement": "concentration effective in blocking neutrophil-HUVEC adhesion", "setting": "[3]", "value": 1, "unit": "µg/mL"}, {"measurement": "effect on neutrophil rolling on activated HUVEC", "setting": "[3]", "value": "significantly blocked"}, {"measurement": "adjuvant activity in antibody formation in comparison to the control", "setting": "[4]", "value": "some adjuvant activity"}, {"measurement": "adjuvant activity, rank among the three arabinogalactan compounds", "setting": "[4]; ovalbumin antigen", "value": "highest adjuvant activity"}]}, {"molecule": "AG palmitate [high substitution (DS 7.3%) AG palmitate]", "values": [{"measurement": "adjuvant activity in antibody formation in comparison to the control", "setting": "[4]", "value": "some adjuvant activity"}]}, {"molecule": "AG stearate (DS 1.7%) [B]", "values": [{"measurement": "concentration effective in blocking neutrophil-HUVEC adhesion", "setting": "[3]", "value": 1, "unit": "µg/mL"}, {"measurement": "effect on neutrophil rolling on activated HUVEC", "setting": "[3]", "value": "significantly blocked"}]}, {"molecule": "galactan from fractional hydrolysis of AG (arabinose 1.5%)", "values": [{"measurement": "effect on neutrophil rolling on activated HUVEC", "setting": "[3]", "value": "no measurable effect"}]}]}
